According to patent publication US7273866B2, “2-aryl thiazole derivatives as KCNQ modulators” (Bristol-Myers Squibb Company, priority 2002, dated 2007):
pEC50: −log10 of the molar value.

Tested on: KCNQ channels
Test: Thallium flux assay for KCNQ channel openers
Assay type: cell-based
Details: HEK-293 cells stably transfected with a KCNQ family member; for Min. conc. response: minimal active concentration: lowest concentration giving signal amplitude >= four standard deviations of negative controls; for pEC50: thallium flux, 10 point concentration series
Procedure: Thallium Flux Assay for KCNQ channel Openers. The thallium assay is a modification of that published by Weaver and is referenced in its entirety (Weaver, C. D. WO 02/31508, 2002).
Approximately 20,000 cells/well of an HEK-293 cell line stably transfected with one of the members of the KCNQ family were plated into clear-bottom, black-walled, poly-D-lysine coated, 384 well assay plates in 20 μl/well of low chloride plating medium. Low chloride plating medium was composed of the following: sodium gluconate, 109 mM; potassium gluconate, 5.4 mM; hemi-calcium gluconate, 3.6 mM; magnesium sulfate, 0.8 mM; sodium bicarbonate, 26.2 mM; sodium phosphate monobasic, 1.2 mM; glutamine, 2 mM; glucose, 5 mM; 4-(2-hydroxyethyl)-1-piperazineethanesulfonic acid (HEPES) (pH 7.3) 10 mM, MEM vitamin solution (10× concentration of vitamins, Gibco/LifeTechnologies 11120-052) and MEM amino acid solution (1× concentration of amino acids, Gibco/LifeTechnologies 11130-051).
Following overnight incubation in a 5% CO2 incubator at 37° C., the cells in the plates were loaded with 20 μl/well of a dye loading solution containing the commercially available thallium-sensitive fluorescent dye BTC-AM, the acetomethoxy ester of BTC (see U.S. Pat. No. 5,501,980) (2 μM) and pluronic acid F-127 (Molecular Probes P 6867) (0.02% w/v) in chloride free assay buffer. Chloride free assay buffer was composed of the following: sodium gluconate, 140 mM; potassium gluconate, 2.5 mM; hemi-calcium gluconate, 6 mM; hemi-magnesium gluconate, 2 mM; glucose, 5 mM; HEPES (pH 7.3), 10 mM.
Following incubation in the dye loading solution for from 45-90 min at room temperature, the dye loading solution was removed by aspiration and replaced with 40 μl/well of chloride free assay buffer.
Prior to addition to cell plates, test compound and standard compounds were dissolved in DMSO to 3 mM concentration. Compounds were then diluted from the 3 mM stock to 100-fold over the final assay concentration in DMSO. Finally, compounds in DMSO were diluted from 100-fold over the final assay concentration to 5-fold over the final assay concentration in chloride free assay buffer.
Ten μl/well of compounds at 5-fold over the final assay concentration were then added to the cell plates. This represents a 1:5 dilution, yielding the final test concentration. The wells used for test compounds were A1-P20. Wells A21-P22 contained a standard opener and a maximally efficacious concentration (positive control). Wells A23-P24 contained chloride free assay buffer containing 1% DMSO (negative control).
Following addition of test compounds, the plates were loaded onto the Molecular Devices FLIPR. The 488 nm line of the argon laser was used to excite the BTC and the emission filter was a 540(+/−30) nm. Images were collected at 1 Hz. Ten seconds of baseline were collected and then the FLIPR was used to add 13 μl/well of a stimulus buffer composed of 7.5 mM Tl2SO4 in chloride free assay buffer. Images were collected for an additional 60 seconds.
For data analysis, the amplitude of the average of the negative controls was subtracted from all wells. The amplitudes of the test compounds were then compared to the value of four standard deviations of the negative control wells. The lowest concentration of a test compound sufficient to generate a signal amplitude greater than or equal to four standard deviations from the amplitude of the negative controls was defined as the minimal active concentration.
For generating EC50 values, compounds were serially diluted in 1:3 volume increments to produce a 10 point concentration series. EC50 values were calculated by fitting the resulting amplitudes to a single-site logistic equation. EC50 was defined as the concentration of test compound required to yield 50% of the maximal response. Maximal response (Maximal opening) was the largest signal amplitude divided by the negative control amplitude generated by any concentration of a test compound. […]

| pEC50 | Structure (SMILES) | Min. conc. response [µM] |
| --- | --- | --- |
| 6.00 to 7.30 | C[C@@H]1CN(c2cccc([C@H](C)NC(=O)c3sc(-c4ncccc4CN4CCOCC4)nc3C(F)(F)F)c2)C[C@H](C)O1 [Example 64, (S)-2-[3-(4-morpholinylmethyl)pyridin-2-yl]-4-(trifluoromethyl)-N-[1-[3-(2,6-dimethyl-4-morpholinyl)phenyl]ethyl]-5-thiazolecarboxamide] | 10 |
| 6.00 to 7.30 | CCN(Cc1cccnc1-c1nc(C(F)(F)F)c(C(=O)N[C@@H](C)c2cccc(N3C[C@@H](C)O[C@@H](C)C3)c2)s1)C(C)C [Example 65] | 10 |
| 6.00 to 7.30 | CCN(Cc1ccncc1)Cc1cccnc1-c1nc(C(F)(F)F)c(C(=O)N[C@@H](C)c2cccc(N3C[C@@H](C)O[C@@H](C)C3)c2)s1 [Example 66] | 3 |
| 6.00 to 7.30 | C[C@H](NC(=O)c1sc(-c2ncccc2CN2CCOCC2)nc1C(F)(F)F)c1cccc(-c2cccnc2)c1 [Example 67, (S)-2-[3-(4-morpholinylmethyl)pyridin-2-yl]-4-(trifluoromethyl)-N-[1-[3-(3-pyridinyl)phenyl]ethyl]-5-thiazolecarboxamide] | 30 |
| 4.70 to 6.00 | CCN(Cc1cccnc1-c1nc(C(F)(F)F)c(C(=O)N[C@@H](C)c2cccc(-c3cccnc3)c2)s1)C(C)C [Example 68, (S)-2-[3-[ethyl(2-propyl)aminomethyl]pyridin-2-yl]-4-(trifluoromethyl)-N-[1-[3-(3-pyridinyl)phenyl]ethyl]-5-thiazolecarboxamide] | 30 |
| 6.00 to 7.30 | CCN(Cc1ccncc1)Cc1cccnc1-c1nc(C(F)(F)F)c(C(=O)N[C@@H](C)c2cccc(-c3cccnc3)c2)s1 [Example 69, (S)-2-[3-[(4-pyridinylmethyl)ethylaminomethyl]pyridin-2-yl]-4-(trifluoromethyl)-N-[H-[3-(3-pyridinyl)phenyl]ethyl]-5-thiazolecarboxamide] | 3 |
| 6.00 to 7.30 | CCN(Cc1cccnc1-c1nc(C(F)(F)F)c(C(=O)NC(C)c2cccc(OC(F)(F)F)c2)s1)C(C)C (centres unmarked) [Example 70, 2-[3-[ethyl(2-propyl)aminomethyl]pyridin-2-yl]-4-(trifluoromethyl)-N-[1-[3-(trifluoromethoxy)phenyl]ethyl]-5-thiazolecarboxamide] | 3 |
| 6.00 to 7.30 | Cc1cccnc1-c1nc(C(F)(F)F)c(C(=O)N[C@@H](C)c2cccc(-c3cccnc3)c2)s1 [Example 73, (S)-2-(3-methylpyridin-2-yl)-4-(trifluoromethyl)-N-[1-[3-(3-pyridinyl)phenyl]ethyl]-5-thiazolecarboxamide] | 0.3 |
| 4.70 to 6.00 | CC(NC(=O)c1sc(-c2ccccc2CN(C)C)nc1C(F)(F)F)c1cccc(OC(F)(F)F)c1 (centres unmarked) [Example 74] | 3 |
| 6.00 to 7.30 | COc1cccc([C@H](C)NC(=O)c2sc(-c3ccccc3CN(C)C)nc2C(F)(F)F)c1 [Example 76] | 10 |
| 6.00 to 7.30 | CCN(CC)Cc1ccccc1-c1nc(C(F)(F)F)c(C(=O)NCc2cccc(F)c2)s1 [Example 79] | 3 |
| 6.00 to 7.30 | CCN(CC)Cc1ccccc1-c1nc(C(F)(F)F)c(C(=O)N[C@@H](C)c2cccc(OC)c2)s1 [Example 82] | 0.3 |
|  | CC(NC(=O)c1sc(-c2ccc(F)cc2)nc1C(F)(F)F)c1cccc(C(F)(F)F)c1 (centres unmarked) [Example 83] | 0.3 |
|  | COc1ccccc1-c1nc(C(F)(F)F)c(C(=O)NCc2ccccn2)s1 [Example 84] | 30 |
|  | COc1cccc(-c2nc(C(F)(F)F)c(C(=O)NCc3cccc(F)c3)s2)c1 [Example 85] | 30 |
|  | COc1cccc(-c2nc(C(F)(F)F)c(C(=O)NC(C)c3ccc4c(c3)CCO4)s2)c1 (centres unmarked) [Example 86] | 3 |
|  | CC(NC(=O)c1sc(-c2ccc3c(c2)OCO3)nc1C(F)(F)F)c1cccc(C(F)(F)F)c1 (centres unmarked) [Example 87] | 0.3 |
|  | COc1cccc(-c2nc(C(F)(F)F)c(C(=O)NCc3ccccn3)s2)c1 [Example 88] | 30 |
|  | COc1ccc(-c2nc(C(F)(F)F)c(C(=O)NC(C)c3cccc(C(F)(F)F)c3)s2)cc1OC (centres unmarked) [Example 89] | 30 |
|  | COc1ccc(-c2nc(C(F)(F)F)c(C(=O)NC(C)c3ccc(OC)c(OC)c3)s2)cc1OC (centres unmarked) [Example 90] | 10 |
|  | COc1ccc(-c2nc(C(F)(F)F)c(C(=O)NCc3cccc(OC(F)(F)F)c3)s2)cc1OC [Example 91] | 30 |

| pEC50 | Structure (SMILES) | Min. conc. response [µM] |
| --- | --- | --- |
|  | CC(NC(=O)c1sc(-c2cccc(F)c2)nc1C(F)(F)F)c1cccc(C(F)(F)F)c1 (centres unmarked) [Example 92] | 3 |
|  | O=C(NCc1cccc(F)c1)c1sc(-c2cccc(F)c2)nc1C(F)(F)F [Example 93] | 10 |
|  | CC(NC(=O)c1sc(-c2cccc(F)c2)nc1C(F)(F)F)c1cccc(OC(F)(F)F)c1 (centres unmarked) [Example 95] | 0.3 |
|  | COc1ccccc1-c1nc(C(F)(F)F)c(C(=O)NC(C)c2cccc(Br)c2)s1 (centres unmarked) [Example 96] | 3 |
|  | CC(NC(=O)c1sc(-c2cccc(N3CCOCC3)c2)nc1C(F)(F)F)c1cccc(OC(F)(F)F)c1 (centres unmarked) [Example 97] | 10 |
|  | CC(NC(=O)c1sc(-c2cccc(N3CCOCC3)c2)nc1C(F)(F)F)c1cccc(C(F)(F)F)c1 (centres unmarked) [Example 98] | 3 |
|  | CCN(CC)CCOc1ccccc1-c1nc(C(F)(F)F)c(C(=O)N[C@@H](C)c2cccc(N3CCOCC3)c2)s1 [Example 100] | 30 |
|  | CCN(CC)CCOc1ccccc1-c1nc(C(F)(F)F)c(C(=O)N[C@@H](C)c2cccc(OC)c2)s1 [Example 101] | 3 |
|  | CC(NC(=O)c1sc(-c2ccccc2F)nc1C(F)(F)F)c1cccc(N)c1 (centres unmarked) [Example 102] | 0.3 |
|  | CC(NC(=O)c1sc(-c2csc3ccccc23)nc1C(F)(F)F)c1cccc(CN2CCCC2)c1 (centres unmarked) [Example 103] | 0.3 |
|  | CCN(CC)CCOc1ccccc1-c1nc(C(F)(F)F)c(C(=O)NC(C)c2cccc(OC(F)(F)F)c2)s1 (centres unmarked) [Example 104] | 10 |
|  | CC(NC(=O)c1sc(-c2ccccc2CN(C)C)nc1C(F)(F)F)c1cccc(C(F)(F)F)c1 (centres unmarked) [Example 105] | 30 |
|  | CCN(CC)Cc1ccccc1-c1nc(C(F)(F)F)c(C(=O)NC(C)c2cccc(CN3CCOCC3)c2)s1 (centres unmarked) [Example 106] | 10 |
|  | CCN(CC)Cc1ccccc1-c1nc(C(F)(F)F)c(C(=O)NC(C)c2cccc(-c3cccnc3)c2)s1 (centres unmarked) [Example 107] | 30 |
|  | CC(NC(=O)c1sc(-c2ccccc2CN2CCOCC2)nc1C(F)(F)F)c1cccc(OC(F)(F)F)c1 (centres unmarked) [Example 108] | 0.3 |
|  | O=C(NCc1cccc(OC(F)(F)F)c1)c1sc(-c2ccccc2CN2CCOCC2)nc1C(F)(F)F [Example 109] | 3 |
|  | C[C@H](NC(=O)c1sc(-c2ccccc2CN2CCOCC2)nc1C(F)(F)F)c1cccc(N2CCOCC2)c1 [Example 110] | 3 |
|  | COc1cccc([C@H](C)NC(=O)c2sc(-c3ccccc3CN3CCOCC3)nc2C(F)(F)F)c1 [Example 111] | 0.3 |
|  | COc1cccc([C@H](C)NC(=O)c2sc(-c3ccccc3CN3CCN(C)CC3)nc2C(F)(F)F)c1 [Example 112] | 30 |
|  | CCN(Cc1ccncc1)Cc1ccccc1-c1nc(C(F)(F)F)c(C(=O)NC(C)c2cccc(OC(F)(F)F)c2)s1 (centres unmarked) [Example 113] | 0.3 |
